Measurements: PubChem BioAssay AID1626 (SRMLSC, 2009)

System: M. tuberculosis H37Rv growth inhibition
Test: M. tuberculosis H37Rv growth inhibitors, H37Rv strain (AID 1626)
Settings: for IC90: measured here: IC90 against H37Rv; for CC50: measured here: Vero cell cytotoxicity

SMILES | IC90 [µM] | IC50 [µM] | CC50 [µM]
O=Cc1ccc2noc(-c3ccc(F)cc3)c2c1 | > 100 |  | 
OC(CNCCc1ccc(C(F)(F)F)cc1)COc1cccc2ccccc12 (stereo unspecified) | 6.42 | 5.71 | 13.7
Cc1ccc(Cc2cnc(NC(=O)c3cccs3)s2)cc1 | 6.69 | 5.91 | > 40
Nc1ccc2c(c1)Cc1ccccc1-2 | > 100 | 18.3 | 
COc1cc2c(cc1OC)C1(Nc3c-2c(-c2ccccc2)nn3-c2ccccc2)C(=O)Nc2ccccc21 (stereo unspecified) | 13.2 | 7.21 | 23.7
CCn1cnc2sc(C(=O)Oc3cccc(C)c3)c(C)c2c1=O | 2.36 | < 0.195 | 
CCOC(=O)Cc1csc(NC(=O)c2c(O)c3ccccc3n(CCC(C)C)c2=O)n1 | 0.224 | < 0.195 | 8.48
CCCOC(=O)c1ccc(NC(=O)c2cnccn2)cc1 | > 100 | 15 | 
c1ccc(OCc2nn3c(-c4n[nH]c5c4CCC5)nnc3s2)cc1 | 6.8 | 1.23 | 
C=CCn1c(O)c(C(CC)=Nc2ccc3c(c2)CCC3)c(=O)[nH]c1=O | > 100 | 17.8 | 
COc1ccc(OCc2n(CC(=O)OC3CC(C)CCC3C(C)C)c3ccccc3[n+]2C)cc1 (stereo unspecified) | 5.49 | 3.34 | 26.4
CCOc1ccc2nc(NC(=O)CSc3nc(-c4ccccc4)c(C#N)c(=O)[nH]3)sc2c1 | > 100 |  | 
Nc1nc2ccccc2n1C(=O)c1ccccc1 | > 100 | 21.9 | > 40
COc1cccc(NC(=O)c2cc(-c3ccncc3)nc3c(C)cc(C)cc23)c1 | 18.5 | 10.9 | > 40
CCCC(=O)OCCNc1cc(SCc2ccco2)c2nonc2c1[N+](=O)[O-] | 9.07 | 4.2 | 
CC(=O)Nc1nc2ccccc2n1Cc1ccccc1C | 81 | 0.2 | 22.5
CCCc1ccc(-c2cc(C(=O)NC3=NCCS3)c3ccccc3n2)cc1 | > 100 |  | > 40
CCC(C)c1ccccc1NC(=O)CN1CCN(C/C=C/c2ccccc2)CC1 (stereo unspecified) | 35.1 | 21.9 | 
COc1ccc(-c2noc(CCC(=O)Nc3ccc4c(c3)OCCO4)n2)cc1 | > 100 | 30.7 | 
O=C(c1ccc(F)cc1)C(CN1CCOCC1)c1ccccc1 (stereo unspecified) | 7.01 | 6.14 | 20.7

SMILES | IC90 [µM] | IC50 [µM] | CC50 [µM]
Cc1ccc(Cn2ccc(=O)c(OCc3c(Cl)cccc3Cl)c2C)cc1 | 11.8 | 8.57 | > 40
COc1cccc(-c2nc(-c3ccccc3)nc(N3CCN(C)CC3)c2C#N)c1 | 12.4 | 8.8 | 26.7
Cc1ccc(Cc2cnc(N3C(=N)SC(C)C3=O)s2)cc1 (stereo unspecified) | 18.1 | 3.58 | > 40
O=C1CCC(=O)N1CNc1ccc(Oc2ccccc2)cc1 | > 100 | 2.58 | 
Cc1ccc(N(CCC#N)C(=O)CCl)cc1C | 38.4 | 19.7 | 1.94
Cc1ccc(C)c(/C=C/C(=O)c2ccccc(=O)c2O)c1 |  |  | 4.93
CCCCCCCCSc1nnc(CSc2nc3nc(C)cc(C)n3n2)o1 | 24.6 | 0.635 | 
O=C1c2ccccc2-n2c1nc1ccccc1c2=O | 0.601 | < 0.195 | > 40
Cc1[nH]c2ccccc2c1C1=NNC(=Nc2ccc(F)cc2)SC1 | 49.8 | 13.3 | > 40
COC(=O)Cc1ccc(NC(=O)c2ccc(Br)o2)cc1 | > 100 |  | 
OC1(C#Cc2c(-c3ccsc3)oc3ccc(N4CCOCC4)cc23)CCCCC1 | > 100 | 15 | > 40
CCc1ccc(CCC(=O)Nc2ccc(C)c(C)c2)o1 | > 100 | 14.8 | 
O=C(NC(=O)c1ccc(C(F)(F)F)cc1)Nc1ccc(-c2cnco2)cc1 | > 100 | 49.6 | > 40
O=C(CSc1ccc([N+](=O)[O-])cn1)Nc1ccc2c(c1)OCCO2 | > 100 | 51.3 | 
Clc1ccc(Nc2ncn[nH]2)c(Cl)c1 | > 100 | 6.68 | > 40
CCOC(=O)C(/C=C(\C#N)C(=O)OCC)=C(/N)N1CCN(c2ccc(Cl)cc2)CC1 | 13 | 11.7 | 
N#Cc1c(N2CCN(C(=O)c3ccco3)CC2)nc(-c2ccccc2)c2c1CCCC2 | 12.2 | 9.52 | 24.1
Nc1nc(N)c2cc(Sc3ccc4ccccc4c3)ccc2n1 | 3.16 | 1.61 | 1.01
Cc1ccc(-c2nc(NCc3ccco3)c3ccccc3n2)cc1 | 16.2 | 9.38 | > 40
COc1ccc(N/C=C/C(=O)c2sc(-c3ccccc3)nc2C)cc1 | > 100 | 69.2 | > 40

SMILES | IC90 [µM] | IC50 [µM] | CC50 [µM]
Cc1[nH]n(-c2ccccc2)c(=O)c1N=Nc1nccs1 | 5.14 | 2.8 | 29.5
CCC(=O)Nc1nc(-c2cc([N+](=O)[O-])cs2)cs1 | > 100 | < 0.195 | 
CC(=O)c1c(C)n(C)c2ccc(O)cc12 | > 100 |  | 
CCOc1ccc(NC2C=CS(=O)(=O)C2)cc1 (stereo unspecified) | > 100 |  | 
CC(C)(C)c1nn(-c2ccccc2)c2[nH]c(=O)c(CNCc3ccc4c(c3)OCO4)cc12 | 13.8 | 11.3 | > 40
O=C(O)c1[nH]c(=O)[nH]c(=O)c1F | 18.4 | 6.62 | > 40
N#C/C(=C\c1ccccn1)c1nc2ccccc2s1 | > 100 | 14.9 | > 40
O=C(COC(=O)c1ccccc1Br)Nc1ccccc1F | > 100 |  | 
O=C(OCC(=O)N1CCN(C(=O)c2ccco2)CC1)c1sc2ccccc2c1Cl | > 100 |  | 
CCCC(=O)Nc1cccc(-c2nc3ccccc3c(=O)o2)c1 | 12.1 | 5.72 | 
CC(NC(=O)c1ccc(Br)cc1)c1ccc2c(c1)CCCC2 (stereo unspecified) | > 100 | 15.4 | 
Cc1ccc(NC(=O)/C=C/c2ccc([N+](=O)[O-])s2)cc1 | > 100 | 45.9 | > 40
CCNc1nc(NC(C)(C)C)nc(N2CCCCC2)n1 | 29.5 | 16 | > 40
N#C/C(=C\c1c[nH]c2ccccc12)C(=O)Nc1ncc(Cc2ccc(Cl)cc2Cl)s1 | 13.5 | 11.7 | > 40
CC(C)[C@H]1C(=O)O[C@H](C(C)C)C(=O)N(C)[C@@H](C(C)C)C(=O)O[C@H](C(C)C)C(=O)N(C)[C@@H](C(C)C)C(=O)O[C@H](C(C)C)C(=O)N1C | 8.9 | 7.26 | 12.3
O=C(NCc1ccco1)c1cnn2c1NC(c1ccc(Br)cc1)CC2C(F)(F)F (stereo unspecified) | 1.71 | 1.51 | > 40
CC1CCc2nc(NC(=O)CN3CCN(c4ccccc4)CC3)sc2C1 (stereo unspecified) | > 100 | 24.6 | 
COc1cccc(C2C3=C(N=c4s/c(=C\c5cccc(O)c5)c(=O)n42)c2ccccc2CC3)c1OC (stereo unspecified) | 13.9 | 8.79 | 23.9
COc1ccc(N=c2cc(-c3ccc(O)cc3)oc3ccccc23)cc1 | 9.5 | 5.8 | 34.3
N#Cc1ccc(-c2ccccc2)nc1SCC(=O)c1cc2ccccc2oc1=O | 2.16 | 1.64 | > 40
